# Measured values as given in publication PMC6364417, “Kinase inhibitor library screening identifies synergistic drug combinations effective in sensitive and resistant melanoma cells” (Journal of Experimental & Clinical Cancer Research : CR, 2019).
# What was measured:
# Assay in all cases: Kinase inhibitor library screening, PrestoBlue cell viability, 1 or 10 μM, 72 h
# A375 cells (parental) = settings: for viability at 1 µM / viability at 10 µM: Homo sapiens, A-375, 72 h; for viability at 1 µM: read-out: cell viability, A375 Parental, 1μΜ; for viability at 10 µM: read-out: cell viability, A375 Parental, 10μΜ
# IGR37 cells (parental) = settings: for viability at 1 µM / viability at 10 µM: Homo sapiens, IGR-37, 72 h; for viability at 1 µM: read-out: cell viability, IGR37 Parental, 1μΜ; for viability at 10 µM: read-out: cell viability, IGR37 Parental, 10μΜ
# [1] = test system: A375-GP cells (Dabrafenib-resistant); settings: for viability at 1 µM / viability at 10 µM: Homo sapiens, A-375, 72 h; for viability at 1 µM: read-out: cell viability, A375 GP, 1μΜ; for viability at 10 µM: read-out: cell viability, A375 GP, 10μΜ
# 501Mel cells (parental) = settings: for viability at 1 µM / viability at 10 µM: Homo sapiens; for viability at 1 µM: read-out: cell viability, 501Mel Parental, 1μΜ; for viability at 10 µM: read-out: cell viability, 501Mel Parental, 10μΜ
# In short: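 Readout: PrestoBlue signal on a monochromator plate reader, given as percent viability relative to untreated controls. Parental and drug-resistant (Vemurafenib XP, Dabrafenib GP) sublines were tested; at least duplicates per line.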
# [2] = test system: 501Mel-GP cells (Dabrafenib-resistant); settings: for viability at 1 µM / viability at 10 µM: Homo sapiens; for viability at 1 µM: read-out: cell viability, 501Mel GP, 1μΜ; for viability at 10 µM: read-out: cell viability, 501Mel GP, 10μΜ
# [3] = test system: A375-XP cells (Vemurafenib-resistant); settings: for viability at 1 µM / viability at 10 µM: Homo sapiens, A-375, 72 h; for viability at 1 µM: read-out: cell viability, A375 XP, 1μΜ; for viability at 10 µM: read-out: cell viability, A375 XP, 10μΜ
# [4] = test system: IGR37-XP cells (Vemurafenib-resistant); settings: for viability at 1 µM / viability at 10 µM: Homo sapiens, IGR-37, 72 h; for viability at 1 µM: read-out: cell viability, IGR37 XP, 1μΜ; for viability at 10 µM: read-out: cell viability, IGR37 XP, 10μΜ
# [5] = test system: 501Mel-XP cells (Vemurafenib-resistant); settings: for viability at 1 µM / viability at 10 µM: Homo sapiens; for viability at 1 µM: read-out: cell viability, 501Mel XP, 1μΜ; for viability at 10 µM: read-out: cell viability, 501Mel XP, 10μΜ
# [6] = test system: IGR37-GP cells (Dabrafenib-resistant); settings: for viability at 1 µM / viability at 10 µM: Homo sapiens, IGR-37, 72 h; for viability at 1 µM: read-out: cell viability, IGR37 GP, 1μΜ; for viability at 10 µM: read-out: cell viability, IGR37 GP, 10μΜ
# [7] = IGR37 Parental, 1μΜ, 72 h, in %
# [8] = 501Mel Parental, 1μΜ, 72 h, in %
# [9] = 501Mel Parental, 10μΜ, 72 h, in %
smiles,measurement,setting,value
N#CC[C@H](C1CCCC1)n1cc(-c2ncnc3[nH]ccc23)cn1 [Ruxolitinib (INCB018424)],viability at 1 µM,A375 cells (parental),102%
same,viability at 10 µM,A375 cells (parental),92.9%
same,viability at 1 µM,IGR37 cells (parental),97%
same,viability at 10 µM,IGR37 cells (parental),96.3%
same,viability at 1 µM,[1],95.8%
same,viability at 10 µM,[1],88.9%
same,viability at 1 µM,501Mel cells (parental); 72 h,95.6%
same,viability at 10 µM,501Mel cells (parental); 72 h,96.5%
same,viability at 1 µM,[2]; 72 h,103%
same,viability at 10 µM,[2]; 72 h,87.9%
same,viability at 1 µM,[3],102%
same,viability at 10 µM,[3],106%
same,viability at 1 µM,[4],103%
same,viability at 10 µM,[4],76.6%
same,viability at 1 µM,[5]; 72 h,93.9%
same,viability at 10 µM,[5]; 72 h,86.6%
same,viability at 1 µM,[6],93.2%
same,viability at 10 µM,[6],88.6%
CN(C)CCOc1ccc(-c2nc(-c3ccncc3)c(-c3ccc4c(c3)CC/C4=N\O)[nH]2)cc1 [SB590885],cell viability (kinase inhibitor library screening),"A375 cells (parental); A375 Parental, 1μΜ, in %",38.0
same,cell viability (kinase inhibitor library screening),"A375 cells (parental); A375 Parental, 10μΜ, in %",33.1
same,cell viability (kinase inhibitor library screening),"IGR37 cells (parental); IGR37 Parental, 1μΜ, in %",52.0
same,cell viability (kinase inhibitor library screening),"IGR37 cells (parental); IGR37 Parental, 10μΜ, in %",40.7
same,cell viability (kinase inhibitor library screening),"[1]; A375 GP, 1μΜ, in %",73.8
same,cell viability (kinase inhibitor library screening),"[1]; A375 GP, 10μΜ, in %",25.8
same,cell viability (kinase inhibitor library screening),"501Mel cells (parental); 501Mel Parental, 1μΜ, in %",74.7
same,cell viability (kinase inhibitor library screening),"501Mel cells (parental); 501Mel Parental, 10μΜ, in %",0.649
same,cell viability (kinase inhibitor library screening),"[2]; 501Mel GP, 1μΜ, in %",110.5
same,cell viability (kinase inhibitor library screening),"[2]; 501Mel GP, 10μΜ, in %",0.56
same,cell viability (kinase inhibitor library screening),"[3]; A375 XP, 1μΜ, in %",71.7
same,cell viability (kinase inhibitor library screening),"[3]; A375 XP, 10μΜ, in %",18.9
same,cell viability (kinase inhibitor library screening),"[4]; IGR37 XP, 10μΜ, in %",30.0
same,cell viability (kinase inhibitor library screening),"[5]; 501Mel XP, 1μΜ, in %",121.3
same,cell viability (kinase inhibitor library screening),"[5]; 501Mel XP, 10μΜ, in %",0.7
same,cell viability (kinase inhibitor library screening),"[6]; IGR37 GP, 10μΜ, in %",79.6
Oc1ccc(-c2nc(-c3ccncc3)c(-c3ccc(F)cc3)[nH]2)cc1 [SB 202190],"Cell viability in kinase inhibitor library screening, A375 Parental, 10μΜ","A375 cells (parental); A375 Parental, 10μΜ, 72 h",64.6
same,"Cell viability in kinase inhibitor library screening, A375 Parental, 1μΜ","A375 cells (parental); A375 Parental, 1μΜ, 72 h",114.0
same,"Cell viability in kinase inhibitor library screening, IGR37 Parental, 1μΜ",IGR37 cells (parental); [7],118.8
same,"Cell viability in kinase inhibitor library screening, IGR37 Parental, 10μΜ","IGR37 cells (parental); IGR37 Parental, 10μΜ, 72 h, in %",83.2
same,"Cell viability in kinase inhibitor library screening, A375 GP, 1μΜ","[1]; A375 GP, 1μΜ, 72 h",105.4
same,"Cell viability in kinase inhibitor library screening, A375 GP, 10μΜ","[1]; A375 GP, 10μΜ, 72 h",98.4
same,"Cell viability in kinase inhibitor library screening, 501Mel Parental, 1μΜ",501Mel cells (parental); [8],105.7
same,"Cell viability in kinase inhibitor library screening, 501Mel Parental, 10μΜ",501Mel cells (parental); [9],89.1
same,"Cell viability in kinase inhibitor library screening, 501Mel GP, 1μΜ","[2]; 501Mel GP, 1μΜ, 72 h, in %",108.3
same,"Cell viability in kinase inhibitor library screening, 501Mel GP, 10μΜ","[2]; 501Mel GP, 10μΜ, 72 h, in %",90.0
same,"Cell viability in kinase inhibitor library screening, A375 XP, 10μΜ","[3]; A375 XP, 10μΜ, 72 h",98.7
same,"Cell viability in kinase inhibitor library screening, IGR37 XP, 10μΜ","[4]; IGR37 XP, 10μΜ, 72 h",56.3%
same,"Cell viability in kinase inhibitor library screening, IGR37 XP, 1μΜ","[4]; IGR37 XP, 1μΜ, 72 h, in %",103.1
same,"Cell viability in kinase inhibitor library screening, 501Mel XP, 1μΜ","[5]; 501Mel XP, 1μΜ, 72 h, in %",98.4
same,"Cell viability in kinase inhibitor library screening, 501Mel XP, 10μΜ","[5]; 501Mel XP, 10μΜ, 72 h, in %",74.6
same,"Cell viability in kinase inhibitor library screening, IGR37 GP, 10μΜ","[6]; IGR37 GP, 10μΜ, 72 h",85.3%
same,"Cell viability in kinase inhibitor library screening, IGR37 GP, 1μΜ","[6]; IGR37 GP, 1μΜ, 72 h, in %",104.9
Cn1cc(C2=C(c3ccc(Cl)cc3Cl)C(=O)NC2=O)c2ccccc21 [SB 216763],viability at 1 µM,A375 cells (parental),111%
same,viability at 10 µM,A375 cells (parental),68.1%
same,viability at 1 µM,IGR37 cells (parental),116%
same,viability at 10 µM,IGR37 cells (parental),99%
same,viability at 1 µM,[1],104%
same,viability at 10 µM,[1],67%
same,viability at 1 µM,501Mel cells (parental); 72 h,101%
same,viability at 10 µM,501Mel cells (parental); 72 h,82.6%
same,viability at 1 µM,[2]; 72 h,106%
same,viability at 10 µM,[2]; 72 h,74.1%
same,viability at 1 µM,[3],109%
same,viability at 10 µM,[3],79.9%
same,viability at 1 µM,[4],111%
same,viability at 10 µM,[4],65.4%
same,viability at 1 µM,[5]; 72 h,96.9%
same,viability at 10 µM,[5]; 72 h,73.3%
same,viability at 1 µM,[6],105%
same,viability at 10 µM,[6],88.4%
O=C1NC(=O)C(c2ccccc2[N+](=O)[O-])=C1Nc1ccc(O)c(Cl)c1 [SB 415286],"cell viability, A375 Parental, 1μΜ","A375 cells (parental); A375 Parental, 1μΜ, 72 h, in %",99.8
same,"cell viability, A375 Parental, 10μΜ","A375 cells (parental); A375 Parental, 10μΜ, 72 h, in %",78.1
same,"cell viability, IGR37 Parental, 1μΜ",IGR37 cells (parental); [7],102.6
same,"cell viability, A375 GP, 1μΜ","[1]; A375 GP, 1μΜ, 72 h, in %",95.9
same,"cell viability, A375 GP, 10μΜ","[1]; A375 GP, 10μΜ, 72 h, in %",86.4
same,"cell viability, 501Mel Parental, 1μΜ",501Mel cells (parental); [8],94.3
same,"cell viability, 501Mel Parental, 10μΜ",501Mel cells (parental); [9],76.0
same,"cell viability, 501Mel GP, 1μΜ","[2]; 501Mel GP, 1μΜ, 72 h, in %",100.2
same,"cell viability, 501Mel GP, 10μΜ","[2]; 501Mel GP, 10μΜ, 72 h, in %",76.0
same,"cell viability, A375 XP, 1μΜ","[3]; A375 XP, 1μΜ, 72 h, in %",100.0
same,"cell viability, A375 XP, 10μΜ","[3]; A375 XP, 10μΜ, 72 h, in %",92.8
same,"cell viability, IGR37 XP, 10μΜ","[4]; IGR37 XP, 10μΜ, 72 h",85.4%
same,"cell viability, IGR37 XP, 1μΜ","[4]; IGR37 XP, 1μΜ, 72 h, in %",98.9
same,"cell viability, 501Mel XP, 1μΜ","[5]; 501Mel XP, 1μΜ, 72 h, in %",92.5
same,"cell viability, 501Mel XP, 10μΜ","[5]; 501Mel XP, 10μΜ, 72 h, in %",76.3
same,"cell viability, IGR37 GP, 10μΜ","[6]; IGR37 GP, 10μΜ, 72 h",93.7%
same,"cell viability, IGR37 GP, 1μΜ","[6]; IGR37 GP, 1μΜ, 72 h, in %",94.9
Cc1cccc(-c2[nH]c(C(C)(C)C)nc2-c2ccc3nccnc3c2)n1 [SB 525334],cell viability (kinase inhibitor library screening),"A375 cells (parental); A375 Parental, 1μΜ, in %",112.1
same,cell viability (kinase inhibitor library screening),"A375 cells (parental); A375 Parental, 10μΜ, in %",110.1
same,cell viability (kinase inhibitor library screening),"IGR37 cells (parental); IGR37 Parental, 1μΜ, in %",104.1
same,cell viability (kinase inhibitor library screening),"IGR37 cells (parental); IGR37 Parental, 10μΜ, in %",104.6
same,cell viability (kinase inhibitor library screening),"[1]; A375 GP, 1μΜ, in %",114.6
same,cell viability (kinase inhibitor library screening),"[1]; A375 GP, 10μΜ, in %",93.3
same,cell viability (kinase inhibitor library screening),"501Mel cells (parental); 501Mel Parental, 1μΜ, in %",98.2
same,cell viability (kinase inhibitor library screening),"501Mel cells (parental); 501Mel Parental, 10μΜ, in %",90.3
same,cell viability (kinase inhibitor library screening),"[2]; 501Mel GP, 1μΜ, in %",110.1
same,cell viability (kinase inhibitor library screening),"[2]; 501Mel GP, 10μΜ, in %",89.8
same,cell viability (kinase inhibitor library screening),"[3]; A375 XP, 1μΜ, in %",109.3
same,cell viability (kinase inhibitor library screening),"[3]; A375 XP, 10μΜ, in %",103.4
same,cell viability (kinase inhibitor library screening),"[4]; IGR37 XP, 1μΜ, in %",91.6
same,cell viability (kinase inhibitor library screening),"[4]; IGR37 XP, 10μΜ, in %",60.0
same,cell viability (kinase inhibitor library screening),"[5]; 501Mel XP, 1μΜ, in %",100.5
same,cell viability (kinase inhibitor library screening),"[5]; 501Mel XP, 10μΜ, in %",78.5
same,cell viability (kinase inhibitor library screening),"[6]; IGR37 GP, 1μΜ, in %",99.0
same,cell viability (kinase inhibitor library screening),"[6]; IGR37 GP, 10μΜ, in %",73.8
